Earlier results in Sander's compilation of Henry's law constants (doi:10.1016/s0016-7037(99)00330-0).

Assay: Henry solubility constant Hcp at 298.15 K (mol/(m3 Pa))
Conditions: reference: Plyasunov and Shock (2000); cited value
In the case of `C=CCC(C)C` [4-methyl-1-pentene], the “Henry solubility constant Hcp” value is listed as 1.5e-05. In the case of `CC1CCCC1` [methylcyclopentane], the “Henry solubility constant Hcp” value is given as 2.8e-05. For `CCCCCc1ccccc1` [pentylbenzene], the “Henry solubility constant Hcp” value is listed as 0.00051. For `C1=CC=CCC=C1` [1,3,5-cycloheptatriene], the “Henry solubility constant Hcp” value is listed as 0.0022. For `CCCC(C)CC` (stereo not drawn) [3-methylhexane], the “Henry solubility constant Hcp” value is given as 4.5e-06. In the case of `CCC(C)(C)O` [2-methyl-2-butanol], the “Henry solubility constant Hcp” value is given as 0.71. In the case of `CC(C)c1ccccc1` [(2-propyl)-benzene], the “Henry solubility constant Hcp” value is given as 0.00084. For `CCC(CC)CO` [2-ethyl-1-butanol], the “Henry solubility constant Hcp” value is given as 0.54. In the case of `CCC(C)CC` [3-methylpentane], the “Henry solubility constant Hcp” value is listed as 5.9e-06. For `OC1CCCC1` [cyclopentanol], the “Henry solubility constant Hcp” value is listed as 4.2. For `C=CC(=C)C` [2-methyl-1,3-butadiene], the “Henry solubility constant Hcp” value is given as 0.00013. For `CC=C(C)C` [2-methyl-2-butene], the “Henry solubility constant Hcp” value is listed as 6.7e-05. In the case of `C=CCCCCCC` [1-octene], the “Henry solubility constant Hcp” value is listed as 1.1e-05. For `CCC(C)C(C)C` (stereo not drawn) [2,3-dimethylpentane], the “Henry solubility constant Hcp” value is given as 5.7e-06. In the case of `CCCCCCCCO` [1-octanol], the “Henry solubility constant Hcp” value is listed as 0.41. In the case of `Cc1cccc(C(C)C)c1` [1-methyl-3-(1-methylethyl)-benzene], the “Henry solubility constant Hcp” value is given as 0.0014. In the case of `CCCCCCCCCCCC` [dodecane], the “Henry solubility constant Hcp” value is listed as 1.2e-06. For `C[C@@H]1CCCC[C@@H]1C` [cis-1,2-dimethylcyclohexane], the “Henry solubility constant Hcp” value is listed as 2.8e-05. In the case of `C1=CCCCCC1` [cycloheptene], the “Henry solubility constant Hcp” value is listed as 0.0002. In the case of `CCCCCCCCCC` [decane], the “Henry solubility constant Hcp” value is given as 1.1e-06. In the case of `OC1CCCCCC1` [cycloheptanol], the “Henry solubility constant Hcp” value is listed as 4.6. In the case of `CCCCCCCO` [1-heptanol], the “Henry solubility constant Hcp” value is given as 0.54. In the case of `CC1CCCC(C)(C)C1` (stereo not drawn) [1,1,3-trimethylcyclohexane], the “Henry solubility constant Hcp” value is given as 9.3e-06. In the case of `C1CCCCCC1` [cycloheptane], the “Henry solubility constant Hcp” value is given as 0.0001. In the case of `CCC#CC(C)C` [2-methyl-3-hexyne], the “Henry solubility constant Hcp” value is listed as 0.00022. In the case of `Cc1cccc(C)c1C` [1,2,3-trimethylbenzene], the “Henry solubility constant Hcp” value is given as 0.0026. For `C=CC(=C)CCC=C(C)C` [7-methyl-3-methylene-1,6-octadiene], the “Henry solubility constant Hcp” value is listed as 0.0004. For `CC1=CC=C(C(C)C)CC1` [1-methyl-4-(1-methylethyl)-1,3-cyclohexadiene], the “Henry solubility constant Hcp” value is given as 0.00051. For `CCc1ccccc1` [ethylbenzene], the “Henry solubility constant Hcp” value is given as 0.0013. In the case of `Cc1ccc(C)cc1` [1,4-dimethylbenzene], the “Henry solubility constant Hcp” value is given as 0.0014. For `CC(C)(C)C#CC(C)(C)C` [2,2,5,5-tetramethyl-3-hexyne], the “Henry solubility constant Hcp” value is given as 3.4e-05. For `CCCC` [butane], the “Henry solubility constant Hcp” value is listed as 1.2e-05. For `C=C1CCC2(C(C)C)CC12` (stereo not drawn) [4-methylene-1-(1-methylethyl)-bicyclo[3.1.0]hexane], the “Henry solubility constant Hcp” value is listed as 0.00015. For `CCCCC(C)CC` (stereo not drawn) [3-methylheptane], the “Henry solubility constant Hcp” value is listed as 2.7e-06. For `CC(C)C(C)(C)O` [2,3-dimethyl-2-butanol], the “Henry solubility constant Hcp” value is given as 0.38. In the case of `c1ccccc1` [benzene], the “Henry solubility constant Hcp” value is listed as 0.0018. In the case of `CCCc1ccccc1` [propylbenzene], the “Henry solubility constant Hcp” value is listed as 0.00091. For `CC(C)CCC(C)(C)C` [2,2,5-trimethylhexane], the “Henry solubility constant Hcp” value is given as 2.8e-06. In the case of `Cc1ccccc1` [methylbenzene], the “Henry solubility constant Hcp” value is listed as 0.0016. In the case of `CCCCCCCC` [octane], the “Henry solubility constant Hcp” value is given as 4e-06. In the case of `CCCCCCCCC` [nonane], the “Henry solubility constant Hcp” value is listed as 2.1e-06. In the case of `CCC(O)(CC)CC` [3-ethyl-3-pentanol], the “Henry solubility constant Hcp” value is given as 0.3. In the case of `CC(C)C#CC(C)(C)C` [2,2,5-trimethyl-3-hexyne], the “Henry solubility constant Hcp” value is listed as 5.5e-05. In the case of `CC1=CCCCC1` [1-methylcyclohexene], the “Henry solubility constant Hcp” value is listed as 0.00014. For `C=Cc1ccccc1` [ethenylbenzene], the “Henry solubility constant Hcp” value is listed as 0.0029. In the case of `CC(C)(C)c1ccccc1` [(1,1-dimethylethyl)-benzene], the “Henry solubility constant Hcp” value is given as 0.00079. In the case of `Cc1cc(C)cc(C)c1` [1,3,5-trimethylbenzene], the “Henry solubility constant Hcp” value is given as 0.0013. In the case of `CC(C)Cc1ccccc1` [(2-methylpropyl)-benzene], the “Henry solubility constant Hcp” value is listed as 0.00029.
